Values after ≈ are worked out from the molar mass of the structure shown. Read-outs that look alike come from different tables or passages of the source.
Tests used:
[1] = Content of glyburide and arginine dissolved in the filtered supernatant, Example 2; type: physicochemical; conditions: 8mg glyburide + 8mg arginine in 10mL water, supersaturated solution at 60℃, 0.45um filter
[2] = 25℃; cited from earlier work
[3] = 100mg glyburide (form A) + 36mg arginine in 10mL water, room temperature, stirred overnight, 0.45um filter

Row | solubility [1] | SMILES | solubility in water [2] | arginine content in supernatant [1] | arginine content in supernatant [3]
1 | 800 µg/mL | COc1ccc(Cl)cc1C(=O)NCCc1ccc(S(=O)(=O)NC(=O)NC2CCCCC2)cc1 [格列本脲, N-[2-[4-[[[(环己氨基)羰基]氨基]磺酰基]苯基]乙基]-2-甲氧基-5-氯苯甲酰胺] | 100 µg/mL (≈ 202 µM) |  | 
2 |  | N=C(N)NCCCC(N)C(=O)O (stereo not shown) [精氨酸] |  | 0.8 mg/mL | 3.50 mg/mL

Reference: patent CN113214121A, “一种格列本脲-精氨酸共无定型” (Jiangsu Hengrui Medicine Co Ltd, priority 2020, dated 2021)
